In US20070243577A1, “Method for the detection of apoptosis by determining apoptosis-specific markers released into an extracellular medium through cellular release mechanisms” (Evotec OAI AG, priority 2000, published 2007):

Assays:
Jurkat cells [1] = assay: Extracellular release of cytochrome c into cell culture medium (immunoprecipitation and immunoblot); assay type: cell-based, human; settings: for cytochrome c in the cell culture medium: 16 h, anti-CD95 mAb 1 μg/ml, etoposide 25 μg/ml, doxorubicin 2 μg/ml
Procedure: 5×10^6 Jurkat cells were cultured in growth medium and either left untreated (control) or stimulated for 16 h with staurosporine (stauro, 2.5 μM), anti-CD95 mAb (α-CD95, 1 μg/ml), etoposide (etopo, 25 μg/ml) or doxorubicin (doxo, 2 μg/ml). Cytochrome c was precipitated from the cell culture medium (m) and the cellular extracts (c) with antibodies against the native molecule. The immunoprecipitated material was separated by SDS-PAGE and analysed by immunoblotting.
5×10^6 Jurkat cells were cultured in growth medium and stimulated for 15 h with the indicated concentrations of anti-CD95 mAb and staurosporine or for 24 h with the indicated concentrations of etoposide or doxorubicin. Cytochrome c was precipitated from the culture medium (m) and the cellular extracts (c) with antibodies against the native molecule. The immunoprecipitated material was separated by SDS-PAGE and analysed by immunoblotting. The quantity of cytochrome c was determined by densitometric analysis. The graphs display the amount of cytochrome c in the culture medium relative to the total amount of cytochrome c present in medium and cells.
1×10^6 Jurkat cells were incubated with medium or staurosporine (stauro, 2.5 μM) and harvested after is the indicated time points (+). A cell culture sample prior to applying staurosporine and a cell culture sample after 15 h without the addition of staurosporine are shown for intercomparison (−). Release of cytochrome c was determined by immunoprecipitation of the medium fractions and subsequent immunoblotting. […] The amounts of cytochrome c in the supernatants indicate the absolute densitometric values.
The human Jurkat T-cell line and mouse L929 fibroblasts were grown at 37° C., 5% CO2, in RPMI-1640 medium supplemented with 10% heat-inactivated fetal calf serum, penicillin and streptomycin (all from GIBCO BRL). Etoposide, actinomycin D and doxorubicin were purchased from Sigma and staurosporine from Roche Diagnostics. All stimuli were dissolved in ethanol and kept at −70° C.

Jurkat cells [2] = assay: Measurement of cell death by flow cytometry (hypodiploid nuclei, PI uptake); assay type: cell-based, human
Procedure: The percentage of apoptotic hypodiploid cells is shown on the right of the histograms. […] 1×10^6 Jurkat cells were incubated with medium or staurosporine (stauro, 2.5 μM) and harvested after the indicated time points.
Also shown is the detection of cell death by PI (propidium iodide) uptake and of apoptosis by detecting hypodiploid nuclei, both by flow cytometry. The percentage of dead cells or apoptotic hypodiploid cells is shown on the right of the histograms. 1×10^6 cells were cultured in normal growth medium (control), or in the presence of staurbsporine (stauro, 2.5 μM) or the indicated concentrations of H2O2 for 18 h. […] As also shown, cell death was detected by PI (propidium iodide) uptake and apoptosis by detecting hypodiploid nuclei, both by flow cytometry.

Jurkat cells [3] = assay: LDH activity in the supernatant; assay type: cell-based, human; settings: staurosporine 2.5 μM, 15 hours
Procedure: 1×10^6 Jurkat cells were incubated with medium or staurosporine (stauro, 2.5 μM) and harvested after is the indicated time points (+). A cell culture sample prior to applying staurosporine and a cell culture sample after 15 h without the addition of staurosporine are shown for intercomparison (−). Release of cytochrome c was determined by immunoprecipitation of the medium fractions and subsequent immunoblotting. Heavy; and light chain of anti-cytochrome c antibody and cytochrome c are indicated by open and closed arrowheads, respectively. The LDH activity in the supernatant of apoptotic cells represents the percentage of total LDH activity in the sample. The amounts of cytochrome c in the supernatants indicate the absolute densitometric values. The release of cytochrome c from the cell is a rapid process. Already one hour after apoptosis induction with staurosporine cytochrome c could be detected in the extracellular medium. […] Only about 20% of the total LDH were detected in the supernatants of apoptotic cells after 15 hours of staurosporine treatment.
Cell viability was also determined by monitoring the release of the cytoplasmic enzyme lactate dehydrogenase (LDH), an indicator for cell death. In order to obtain total LDH activity, cells were lysed with 1% Triton X-100. […]

L929 cells [4] = assay: Measurement of cell death by flow cytometry (hypodiploid nuclei, PI uptake); assay type: cell-based, mouse; settings: TNF-α 10 ng/ml plus actinomycin D 1 μg/ml in presence of zVAD-fmk 100 μM, 8 h
Procedure: Also shown is the detection of cell death by PI (propidium iodide) uptake and of apoptosis by detecting hypodiploid nuclei, both by flow cytometry. The percentage of dead cells or apoptotic hypodiploid cells is shown on the right of the histograms. 3×10^6 L929 cells were incubated with medium or with TNF-α (10 ng/ml) plus actinomycin D (Act. D, 1 μg/ml) in the absence or presence of the caspase inhibitor zVAD-fmk (benzyloxycarbonyl-Val-Ala-Asp-fluoromethylketone, zVAD, 100 μM) for 8 h. The release of cytochrome c was determined by immunoprecipitation of culture medium (m) and for intercomparison of corresponding cellular extracts (c) and subsequent immunoblotting. […] As also shown, cell death was detected by PI (propidium iodide) uptake and apoptosis by detecting hypodiploid nuclei, both by flow cytometry. […]
For determination of apoptosis, Jurkat and L929 cells were seeded in microtiter plates and treated with the cytotoxic agents for the indicated time periods. […] Briefly, apoptotic nuclei were prepared by lysing cells in a hypotonic lysis buffer (1% sodium citrate, 0.1% Triton X-100, 50 μg/ml propidium iodide) and subsequently analysed by flow cytometry. In parallel, cell death as assessed by membrane damage was determined by the uptake of propidium iodide (PI, 2 μg/ml in PBS; Sigma) into non-fixed cells. […]

L929 cells [5] = assay: Extracellular release of cytochrome c into cell culture medium (immunoprecipitation and immunoblot); assay type: cell-based, mouse; settings: TNF-α 10 ng/ml plus actinomycin D 1 μg/ml in presence of zVAD-fmk 100 μM, 8 h
Procedure: 3×10^6 L929 cells were incubated with medium or with TNF-α (10 ng/ml) plus actinomycin D (Act. D, 1 μg/ml) in the absence or presence of the caspase inhibitor zVAD-fmk (benzyloxycarbonyl-Val-Ala-Asp-fluoromethylketone, zVAD, 100 μM) for 8 h. The release of cytochrome c was determined by immunoprecipitation of culture medium (m) and for intercomparison of corresponding cellular extracts (c) and subsequent immunoblotting. Heavy and light chain of the anti-cytochrome c antibody and cytochrome c are indicated by open and closed arrowheads, respectively.
The human Jurkat T-cell line and mouse L929 fibroblasts were grown at 37° C., 5% CO2, in RPMI-1640 medium supplemented with 10% heat-inactivated fetal calf serum, penicillin and streptomycin (all from GIBCO BRL). […] The broad-range caspase inhibitor benzyloxycarbonyl-Val-Ala-Asp-fluoromethylketone (zVAD-fmk) was purchased from Enzyme Systems (Dublin, Calif.); all other chemicals were from Merck KG or Roth GmbH.
To determine the cellular cytochrome c content, cells were collected by centrifugation, washed in cold PBS and extracted in cold lysis buffer (50 mM Tris, pH 7.4, 150 mM NaCl, 1% Triton-X100 containing 3 μg/ml aprotinin, 3 μg/ml leupeptin, 3 μg/ml pepstatin and 2 mM PMSF). […] The amount of immunoprecipitated cytochrome c was determined by densitometric analysis using the NIH image software (National Institutes of Health).

[6] = Jurkat cells, staurosporine 2.5 μM
[7] = Jurkat T-cells, 100 μM and 250 μM, 18 h

For COc1cccc2c1C(=O)c1c(O)c3c(c(O)c1C2=O)C[C@@](O)(C(=O)CO)C[C@@H]3O[C@H]1C[C@H](N)[C@H](O)[C@H](C)O1 [doxorubicin], which “cytochrome c in the cell culture medium” value (Jurkat cells [1]; [6]) is on record?
The value was “large amounts of cytochrome c”.

For COc1cc([C@@H]2c3cc4c(cc3[C@@H](O[C@@H]3O[C@@H]5CO[C@@H](C)O[C@H]5[C@H](O)[C@H]3O)[C@H]3COC(=O)[C@H]23)OCO4)cc(OC)c1O [etoposide], which “cytochrome c in the cell culture medium” value (Jurkat cells [1]; [6]) is on record?
Its value is “large amounts of cytochrome c”.

For OO [hydrogen peroxide], which “cytochrome c release into the extracellular cell culture medium” value (Jurkat cells [1]; [7]) is on record?
The value was “no cytochrome c release”.

And the “mode of cell death (PI uptake, hypodiploid nuclei)” value (Jurkat cells [2]; [7])?
The value was “induced necrotic death”.

Which results are given for CN[C@@H]1C[C@H]2O[C@@](C)([C@@H]1OC)n1c3ccccc3c3c4c(c5c6ccccc6n2c5c31)C(=O)NC4 [staurosporine]?
cytochrome c in the cell culture medium (Jurkat cells [1]; [6]): large amounts of cytochrome c; time at which cytochrome c could be detected in the extracellular medium (Jurkat cells [1]; [6]): one hour; LDH detected in the supernatants, percentage of total LDH (Jurkat cells [3]): about 20%; time until formation of hypodiploid nuclei after triggering apoptosis (Jurkat cells [2]; [6]): ≥ 5 h

Which “mode of cell death (hypodiploid nuclei, PI uptake)” value (L929 cells [4]) does the source give for “benzyloxycarbonyl-Val-Ala-Asp-fluoromethylketone [zVAD-fmk]” here?
Its value is “resulted in necrosis”.

What about the “extracellular cytochrome c release” value (L929 cells [5]) of the same molecule?
The value was “not during necrotic cell death”.
